Measured values taken from ChEMBL document CHEMBL4265997, “Decision Making in Medicinal Chemistry: The Power of Our Intuition” (ACS Med Chem Lett, 2018).

Molecular target: Estrogen receptor beta (Homo sapiens, UniProt Q92731)
Assay: Antagonist activity at ER-beta (unknown origin)

Chain of Estrogen receptor beta (Q92731 whole entry): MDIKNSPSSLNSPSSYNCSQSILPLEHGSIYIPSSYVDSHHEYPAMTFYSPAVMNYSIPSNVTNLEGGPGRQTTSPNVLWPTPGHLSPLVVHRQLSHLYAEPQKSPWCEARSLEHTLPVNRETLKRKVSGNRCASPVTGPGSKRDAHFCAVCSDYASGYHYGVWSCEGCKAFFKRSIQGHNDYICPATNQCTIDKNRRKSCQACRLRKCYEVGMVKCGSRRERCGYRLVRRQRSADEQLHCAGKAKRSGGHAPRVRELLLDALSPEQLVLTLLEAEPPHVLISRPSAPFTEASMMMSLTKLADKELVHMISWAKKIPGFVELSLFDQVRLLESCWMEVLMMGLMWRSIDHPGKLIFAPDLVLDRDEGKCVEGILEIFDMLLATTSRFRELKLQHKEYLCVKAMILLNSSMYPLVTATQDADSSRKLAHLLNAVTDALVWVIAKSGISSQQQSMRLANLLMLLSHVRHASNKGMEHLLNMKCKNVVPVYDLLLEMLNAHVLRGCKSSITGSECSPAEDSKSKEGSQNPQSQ

SMILES	IC50
CNC(=O)c1ccc2nc(C)c3nnc(-c4ccccc4Cl)n3c2c1	2.51 nM
CNC(=O)c1ccc2nc(C)c3nnc(-c4cc(OCC(C)C)ccc4Cl)n3c2c1	0.631 nM
